{"source": "paper PMC5848165", "about": "(Toxins, 2018)", "key": {"[1]": {"system": "TTX-S sodium channels from rat DRG neurons", "assay": "Whole-cell patch clamp, TTX-S sodium currents in rat DRG neurons", "format": "cell-based, rat (Sprague-Dawley)", "conditions": "25 °C"}, "[2]": {"system": "WT Nav1.7, domain II voltage sensor", "assay": "Voltage sensor trapping test on WT Nav1.7 (patch clamp pulse protocols)", "format": "cell-based, human", "conditions": "10 µM", "experimental": "It has been proven that scorpion β-toxins trapped the domain II S4 voltage sensor in the outward position. However, HWTX-IV inhibited sodium channels by trapping voltage sensor in a closed configuration [15]. We wondered whether JZTX-34 blocked sodium channels in a resting state or an outward position. The current traces were recorded by a 50 ms depolarizing pulse of −10 mV from a holding potential of −80 mV. At first, 10 µM JZTX-34 was added to cells and incubated for 5 min. Then, the currents were elicited by the protocol described before. […] To further confirm this, the same protocol described by Cestele et al. was used to assess whether JZTX-34 traps the domain II S4 voltage sensor of the WT Nav1.7 in a closed position. A 15 ms test pulse to 0 mV was applied from a holding potential of −80 mV and was followed by a 1 ms conditioning pulse to +50 mV. Then, a 15 ms test pulse to −65 mV was used to detect whether the currents were elicited.\nFigure 5 JZTX-34 traps the domain II voltage sensor in closed configuration. (A) Nav1.7 current traces were elicited by a protocol as following. First, an inward sodium currents were elicited by a 50 ms depolarizing potential to 0 mV from a holding potential of −80 mV every 5 s. Second, 10 μM JZTX-34 were added to bath solution. Finally, the same pulse protocol was applied to elicit inward currents after a 5 min toxin treatment. (B) The current traces 0, 15 ms, 100 ms, and 5 min after toxin treatment are shown, which were elicited by a protocol as shown in C. (C) This pulse protocol was included three phases and applied every 5 s. […]\nThe HEK293T cells were maintained in standard culture conditions (5% CO2 and 37 °C). […] After culturing for 36–72 h, cells with obvious green fluorescence were selected for sodium currents recordings the internal solution for sodium currents recording that contained (in mM) 140 CsF, 5 NaCl, 10 HEPES, 3 Na2-ATP, and 10 EGTA. […]\nSodium currents were recorded from DRG, HEK293, and ND cells by the whole-cell patch-clamp technique at 25 °C. […]"}, "hot plate test in mice": {"system": "hot plate test in mice", "assay": "Hot plate test", "format": "in vivo, mouse (Kunming)", "conditions": "for hot plate latency: 120 min, baseline about 10 s, n = 6", "experimental": "Figure 6 Effects of JZTX-34 on pain. (A) Effects of JZTX-34 on the early phase (0–5 min) and late phase (15–30 min) of formalin-induced paw licking response in mice. (B) Effects of JZTX-34 on the acetic acid-induced writhing response in mice. (C)Effects of JZTX-34 on the hot plate test in mice.\nMice with a latency time about 10 s were selected for the hot plate test. […] After administration of test samples, the latency time was recorded at the time points of 30 min, 60 min, 120 min, and 180 min (Figure 6C). Negative control animals received the same volume of vehicle.\nThe synthesized JZTX-34 was obtained according to the procedure as previously described. […] Rats (Sprague-Dawley) and Kunming mice were maintained in the Laboratory of Protein Chemistry of Hunan Normal University. All of the experimental involving animals were approved by the Animal Care and Use Committee of Hunan Normal University (2016-273, 13 October 2016).\nMice were put on a hot plate apparatus (model HZ66-ZH-YLS-6B, Shanghai, China) in order to test response time to a thermal stimulus. The responses time of mice at about 10 s was selected for the test. […] Hind paw licking or jumping were regarded as a sign to avoid heat nociception.\nData from Axon 700B patch clamp were analyzed by Clampfit10.0 (Molecular Devices, Sunnyvale, CA, USA). Dose-response curves were fitted by the Hill logistic equation: y = 1 − (1 − fmax)/[…]. In this equation, n stands an empirical Hill coefficient and fmax is the fraction of current resistant to inhibition at high toxin (Tx) concentration. The G-V curves were obtained by calculating the conductance (G) at each voltage (V) using the equation G = I/(V1 − Vrev), with Vrev being the reversal potential determined for each cell individually. G-V curves were fitted using a Boltzmann equation—y = 1/(1 + exp[(Va − V)/κ])—in which Va, V, and κ represent midpoint voltage of kinetics, test potential, and slope factor, respectively. […] Statistical significance was calculated using Student’s t-test and was defined as p < 0.05."}, "[3]": {"system": "TTX-R sodium channels from rat DRG neurons", "assay": "Whole-cell patch clamp, TTX-R sodium currents in rat DRG neurons", "format": "cell-based, rat (Sprague-Dawley)", "conditions": "1 µM synthetic JZTX-34; 100 nM TTX in external solution; −10 mV from −80 mV"}}, "note": "pIC50: −log10 of the molar value. “Also recorded” adds a separate entry of the source. Residues, ends and D or L forms follow the SMILES beside them."}
{"molecule": "CC(C)C[C@@H]1NC(=O)[C@H](Cc2c[nH]c3ccccc23)NC(=O)[C@H](CCC(=O)O)NC(=O)[C@H](CCCNC(=N)N)NC(=O)[C@@H](NC(=O)[C@H](C)N)CSSC[C@@H]2NC(=O)[C@@H]3CSSC[C@@H](C(=O)N[C@H](C(=O)N[C@@H](Cc4c[nH]c5ccccc45)C(=O)N[C@@H](CC(=O)O)C(=O)N[C@@H](Cc4c[nH]c5ccccc45)C(=O)N[C@H](C(=O)N[C@H](C(=O)O)C(C)C)[C@@H](C)O)C(C)C)NC(=O)[C@H](Cc4c[nH]cn4)NC(=O)[C@H](Cc4ccc(O)cc4)NC(=O)[C@@H]4CCCN4C(=O)[C@H](Cc4c[nH]c5ccccc45)NC(=O)[C@H](CCCCN)NC(=O)[C@H](CCCCN)NC(=O)[C@H](CCCNC(=N)N)NC(=O)[C@H](CSSC[C@H](NC(=O)CNC(=O)CNC1=O)C(=O)N[C@@H](CO)C(=O)N[C@@H](CCCCN)C(=O)N[C@@H](CC(=O)O)C(=O)N[C@@H](C)C(=O)N[C@@H](CC(=O)O)C(=O)N3)NC(=O)[C@H](CCC(=O)O)NC(=O)[C@H](CC(C)C)NC(=O)[C@H](Cc1c[nH]cn1)NC(=O)[C@H](C)NC2=O", "note": "[JZTX-34, Jingzhaotoxin-34] (HELM PEPTIDE1{A.C.R.E.W.L.G.G.C.S.K.D.A.D.C.C.A.H.L.E.C.R.K.K.W.P.Y.H.C.V.W.D.W.T.V}$PEPTIDE1,PEPTIDE1,2:R3-16:R3|PEPTIDE1,PEPTIDE1,9:R3-21:R3|PEPTIDE1,PEPTIDE1,15:R3-29:R3$$$V2.0; N-terminus and C-terminus assumed)", "values": [{"measurement": "inhibition of TTX-S sodium currents", "setting": "[1]; 1 µM synthetic JZTX-34, 50 ms depolarization to −10 mV from −80 mV", "result": "~ 81%"}, {"measurement": "pIC50", "setting": "[1]; synthetic toxin, Hill fit, n = 5, −10 mV from −80 mV holding", "result": 7.04}, {"measurement": "inhibition at first pulse after incubation at rest", "setting": "[2]; 5 min incubation, −10 mV (legend: 0 mV) from −80 mV", "result": "currents were significantly inhibited at the first pulse"}, {"measurement": "current amplitude at first test pulse (0 mV)", "setting": "[2]; 15 ms test pulse to 0 mV from −80 mV", "result": "greatly depressed in a time-dependent manner"}, {"measurement": "inward current at second test pulse (−65 mV)", "setting": "[2]; after 1 ms conditioning pulse to +50 mV", "result": "no inward current was observed"}, {"measurement": "hot plate latency", "setting": "hot plate test in mice; 0.5 mg/kg i.p.", "result": 18.3, "unit": "s"}, {"measurement": "hot plate latency", "setting": "hot plate test in mice; 1 mg/kg i.p.", "result": 23.0, "unit": "s"}, {"measurement": "hot plate latency", "setting": "hot plate test in mice; 2 mg/kg i.p.", "result": 31.6, "unit": "s"}, {"measurement": "time of maximal analgesia, hot plate", "setting": "hot plate test in mice; 0.5, 1 or 2 mg/kg i.p.", "result": 120, "unit": "min"}, {"measurement": "hot plate, analgesia vs morphine", "setting": "hot plate test in mice; JZTX-34 2 mg/kg vs morphine 5 mg/kg", "result": "longer duration and is more effective than morphine; also recorded: longer and stronger analgesia effects than 5 mg/kg morphine"}, {"measurement": "effect on TTX-R sodium currents", "setting": "[3]", "result": "had no effect on TTX-R sodium currents"}]}
